According to patent EP2951180B1, “2,6,7,8 SUBSTITUTED PURINES AS HDM2 INHIBITORS” (Merck Sharp & Dohme Corp., priority 2013, dated 2014):

target: T1, HDM2 (Homo sapiens, UniProt Q00987); assay: HDM2 FRET assay (inhibition of binding of FITC labeled p53-pocket peptide to HDM2); details: 0.5 nM HDM2 (residues 17 to 125), 3nM peptide, two hour incubation at room temperature; read-out: FRET IC50
T1 construct: Thioredoxin (N); made in house; host or cells: E. coli strain BL21(DE3)Rosetta
Method in brief: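 Final: 0.5 nM His-HDM2, 3 nM FITC peptide, 0.25 nM Tb anti-His Ab; PBS, 0.01% BSA, 0.01% Tween-20; 0.1% DMSO.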

T1 sequence (Q00987 17-125): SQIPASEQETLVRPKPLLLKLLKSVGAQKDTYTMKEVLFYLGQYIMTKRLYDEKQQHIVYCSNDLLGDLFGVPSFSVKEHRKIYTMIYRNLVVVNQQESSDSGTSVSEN

Q: Which IC50 does the source give for `Cc1cccc(-c2nc(-c3n[nH]c(=O)o3)nc3nc(N4CCOC[C@@H]4C)n(C[C@H]4CC[C@H](C)CC4)c23)c1` [Example 16.37, 5-{7-[(trans-4-methylcyclohexyl)methyl]-8-[(3S)-3-methylmorpholin-4-yl]-6-(3-methylphenyl)-7H-purin-2-yl} -1,3,4-oxadiazol-2(3H)-one] here?
A: 1000 nM

Q: Which IC50 does the source give for `C[C@H]1CC[C@H](Cn2c(N[C@@H](CO)c3ccccc3)nc3nc(-c4noc(=O)[nH]4)nc(-c4cccc(Cl)c4)c32)CC1` [Example 16.38, 3-{6-(3-chlorophenyl)-8-{[(1R)-2-hydroxy-1-phenylethyl]amino}-7-[(trans-4-methylcyclohexyl)methyl]-7H-purin-2-yl}-1,2,4-oxadiazol-5(4H)-one] here?
A: 1.95 nM

Q: How did the IC50 turn out when `CC(C)C[C@H]1COCCN1c1nc2nc(-c3noc(=O)[nH]3)nc(-c3cccc(Cl)c3)c2n1C[C@H]1CC[C@H](C)CC1` [Example 16.39, 3-{6-(3-chlorophenyl)-7-[(trans-4-methylcyclohexyl)methyl]-8-[(3S)-3-(2-methylpropyl)morpholin-4-yl]-7H-purin-2-yl}-1,2,4-oxadiazol-5(4H)-one] was run?
A: 47.5 nM

Q: For `CC(C)C[C@@H]1COCCN1c1nc2nc(-c3noc(=O)[nH]3)nc(-c3cccc(Cl)c3)c2n1C[C@H]1CC[C@H](C)CC1` [Example 16.40, 3-{6-(3-chlorophenyl)-7-[(trans-4-methylcyclohexyl)methyl]-8-[(3R)-3-(2-methylpropyl)morpholin-4-yl]-7H-purin-2-yl}-1,2,4-oxadiazol-5(4H)-one], which IC50 is on record?
A: 4.59 nM

Q: How did the IC50 turn out when `CC(C)(CO)Nc1nc2nc(-c3noc(=O)[nH]3)nc(-c3cccc(Cl)c3)c2n1C[C@H]1CC[C@H](C)CC1` [Example 16.41, 3-{6-(3-chlorophenyl)-8-[(2-hydroxy-1,1-dimethylethyl)amino] -7-[(trans-4-methylcyclohexyl)methyl]-7H-purin-2-yl}-1,2,4-oxadiazol-5(4H)-one] was run?
A: 17.8 nM

Q: `CC(C)[C@@H]1COCCN1c1nc2nc(-c3noc(=O)[nH]3)nc(-c3cccc(Cl)c3)c2n1C[C@H]1CC[C@H](C)CC1` [Example 16.42, 3-{6-(3-chlorophenyl)-7-[(trans-4-methylcyclohexyl)methyl]-8-[(3R)-3-(1-methylethyl)morpholin-4-yl]-7H-purin-2-yl}-1 ,2,4-oxadiazol-5(4H)-one] was tested. Which IC50 did it give?
A: 3.62 nM

Q: Which IC50 does the source give for `C[C@H]1COCCN1c1nc2nc(-c3noc(=O)[nH]3)nc(-c3cncc(Cl)c3)c2n1C[C@H]1CC[C@H](C)CC1` [Example 16.43, 3-{6-(5-chloropyridin-3-yl)-7-[(trans-4-methylcyclohexyl)methyl]-8-[(3S)-3-methylmorpholin-4-yl]-7H -purin-2-yl}-1,2,4-oxadiazol-5(2H)-one] here?
A: 239 nM

Q: Which IC50 does the source give for `C[C@H]1CC[C@H](Cn2c(N3CCOC[C@H]3c3ccccc3)nc3nc(-c4noc(=O)[nH]4)nc(-c4cc(Cl)cc(CO)c4)c32)CC1` [Example 16.44, 3-{6-[3-chloro-5-(hydroxymethyl)phenyl]-7-[(trans-4-methylcyclohexyl)methyl]-8-[(3R)-3-phenylmorpholin-4-yl]-7H-purin-2-yl}-1,2,4-oxadiazol-5(4H)-one] here?
A: 0.205 nM

Q: Which IC50 does the source give for `C[C@H]1CC[C@H](Cn2c(N3CCOC[C@H]3CO)nc3nc(-c4noc(=O)[nH]4)nc(-c4cccc(Cl)c4)c32)CC1` [Example 16.45, 3-{6-(3-chlorophenyl)-8-[(3R)-3-(hydroxymethyl)mor pholin-4-yl]-7-[(trans-4-methylcyclohexyl)methyl]-7H-purin-2-yl}-1,2,4-oxadiazol-5(4H)-one] here?
A: 47.5 nM

Q: How did the IC50 turn out when `C[C@H](CO)Nc1nc2nc(-c3n[nH]c(=O)o3)nc(-c3cccc(Cl)c3)c2n1C[C@H]1CC[C@H](C)CC1` [Example 16.46, 5-{6-(3-chlorophenyl)-8-{[(1R)-2-hydroxy-1-methylethyl]amino}-7-[(trans-4-methylcyclohexyl)methyl]-7H-purin-2-yl}-1,3,4-oxadiazol-2(3H)-one] was run?
A: 71 nM

Q: Which IC50 does the source give for `CC[C@@H]1COCCN1c1nc2nc(-c3noc(=O)[nH]3)nc(-c3cccc(Cl)c3)c2n1C[C@H]1CC[C@H](C)CC1` [Example 16.47, 3-{6-(3-chlorophenyl)-8-[(3R)-3-ethylmorpholin-4-yl]-7-[(trans-4-methylcyclohexyl)methyl]-7H-purin-2-yl}-1,2,4-oxadiazol-5(4H)-one] here?
A: 11.1 nM

Q: How did the IC50 turn out when `COC(=O)[C@@H]1COCCN1c1nc2nc(-c3noc(=O)[nH]3)nc(-c3cccc(Cl)c3)c2n1C[C@H]1CC[C@H](C)CC1` [Example 16.48, methyl (3S)-4-[6-(3-chlorophenyl)-7-[(trans-4-methylcyclohexyl)methyl]-2-(5-oxo-4,5-dihydro-1,2,4-oxadiazol-3-yl)-7H-purin-8-yl]morpholine-3-carboxylate] was run?
A: 88.3 nM

Q: For `C[C@H](Nc1nc2nc(-c3noc(=O)[nH]3)nc(-c3cccc(Cl)c3)c2n1C[C@H]1CC[C@H](C)CC1)c1cccc(F)c1` [Example 16.49, 3-{6-(3-chlorophenyl)-8-{[(1S)-1-(3-fluorophenyl)ethyl]amino}-7-[(trans-4-methylcyclohexyl)methyl]-7H-purin-2-yl}-1,2,4-oxadiazol-5(4H)-one], which IC50 is on record?
A: 1.63 nM

Q: `CC[C@H](Nc1nc2nc(-c3noc(=O)[nH]3)nc(-c3cccc(Cl)c3)c2n1C[C@H]1CC[C@H](C)CC1)c1ccccc1` [Example 16.50, 3-[6-(3-chlorophenyl)-7-[(trans-4-methylcyclohexyl)methyl]-8-{[(1S)-1-phenylpropyl]amino} -7H-purin-2-yl]-1,2,4-oxadiazol-5(4H)-one] was tested. Which IC50 did it give?
A: 2.67 nM

Q: How did the IC50 turn out when `C[C@@H]1CNCCN1c1nc2nc(-c3noc(=O)[nH]3)nc(-c3cccc(Cl)c3)c2n1C[C@H]1CC[C@H](C)CC1` [Example 16.54, 3-{6-(3-chlorophenyl)-7-[(trans-4-methylcyclohexyl)methyl]-8-[(2R)-2-methylpiperazin-1-yl]-7H-purin-2-yl}-1,2,4-oxadiazol-5(4H)-one] was run?
A: 59 nM

Q: With `C[C@H](Nc1nc2nc(-c3n[nH]c(=O)o3)nc(-c3cccc(Cl)c3)c2n1C[C@H]1CC[C@H](C)CC1)c1cccc(F)c1` [Example 16.55, 5-{6-(3-chlorophenyl)-8-{[(1S)-1-(3-fluorophenyl)ethyl]amino}-7-[(trans-4-methylcyclohexyl)methyl]-7H-purin-2-yl}-1,3,4-oxadiazol-2(3H)-one] as the compound, how does the IC50 read?
A: 5.04 nM

Q: How did the IC50 turn out when `CN(Cc1ccccc1)c1nc2nc(-c3noc(=O)[nH]3)nc(-c3cccc(Cl)c3)c2n1C[C@H]1CC[C@H](C)CC1` [Example 16.56, 3-{8-[benzyl(methyl)amino]-6-(3-chlorophenyl)-7-[(trans-4-methylcyclohexyl)methyl]-7H-purin-2-yl}-1,2,4-oxadiazol-5(4H)-one] was run?
A: 42.9 nM

Q: How did the IC50 turn out when `C[C@H](O)[C@H](Nc1nc2nc(-c3n[nH]c(=O)o3)nc(-c3cccc(Cl)c3)c2n1C[C@H]1CC[C@H](C)CC1)c1ccccc1` [Example 16.57, 5-{6-(3-chlorophenyl)-8-{[(1R,2S)-2-hydroxy-1-phenylpropyl]amino} -7-[(trans-4-methylcyclohexyl)methyl]-7H-purin-2-yl}-1,3,4-oxadiazol-2(3H)-one] was run?
A: 5.54 nM

Q: With `CC[C@@H]1COCCN1c1nc2nc(-c3n[nH]c(=O)o3)nc(-c3cccc(Cl)c3)c2n1C[C@H]1CC[C@H](C)CC1` [Example 16.58, 5-{6-(3-chlorophenyl)-8-[(3R)-3-ethylmorpholin-4-yl]-7-[(trans-4-methylcyclohexyl)methyl]-7H-purin-2-yl}-1,3,4-oxadiazol-2(3H)-one] as the compound, how does the IC50 read?
A: 21.4 nM

Q: How did the IC50 turn out when `COC[C@@H]1COCCN1c1nc2nc(-c3noc(=O)[nH]3)nc(-c3cccc(Cl)c3)c2n1C[C@H]1CC[C@H](C)CC1` [Example 16.59, 3-{6-(3-chlorophenyl)-8-[(3R)-3-(methoxymethyl)mor pholin-4-yl]-7-[(trans-4-methylcyclohexyl)methyl]-7H-purin-2-yl}-1,2,4-oxadiazol-5(4H)-one] was run?
A: 19 nM

Q: With `C[C@@H]1COC[C@@H](C)N1c1nc2nc(-c3noc(=O)[nH]3)nc(-c3cccc(Cl)c3)c2n1C[C@H]1CC[C@H](C)CC1` [Example 16.60, 3-{6-(3-chlorophenyl)-8-[(3R,5R)-3,5-dimethylmorpholin-4-yl]-7-[(trans-4-methylcyclohexyl)methyl]-7H-purin-2-yl}-1,2,4-oxadiazol-5(4H)-one] as the compound, how does the IC50 read?
A: 2.23 nM

Q: `CC[C@H](Nc1nc2nc(-c3n[nH]c(=O)o3)nc(-c3cccc(Cl)c3)c2n1C[C@H]1CC[C@H](C)CC1)c1ccccc1` [Example 16.61, 5-[6-(3-chlorophenyl)-7-[(trans-4-methylcyclohexyl)methyl]-8-{[(1S)-1-phenylpropyl]amino} -7H-purin-2-yl]-1,3,4-oxadiazol-2(3H)-one] was tested. Which IC50 did it give?
A: 9.67 nM

Q: Which IC50 does the source give for `CN(Cc1ccccc1)c1nc2nc(-c3n[nH]c(=O)o3)nc(-c3cccc(Cl)c3)c2n1C[C@H]1CC[C@H](C)CC1` [Example 16.62, 5-{8-[benzyl(methyl)amino]-6-(3-chlorophenyl)-7-[(trans-4-methylcyclohexyl)methyl]-7H-purin-2-yl}-1,3,4-oxadiazol-2(3H)-one] here?
A: 136 nM

Q: Which IC50 does the source give for `COC(C)(C)[C@@H]1COCCN1c1nc2nc(-c3noc(=O)[nH]3)nc(-c3cccc(Cl)c3)c2n1C[C@H]1CC[C@H](C)CC1` [Example 16.63, 3-{6-(3-chlorophenyl)-8-[(3S)-3-(1-methoxy-1-methylethyl)morpholin-4-yl]-7-[(trans-4-methylcyclohexyl)methyl]-7H-purin-2-yl}-1,2,4-oxadiazol-5(4H)-one] here?
A: 19.7 nM

Q: With `CC[C@H](Nc1nc2nc(-c3noc(=O)[nH]3)nc(-c3cccc(Cl)c3)c2n1C[C@H]1CC[C@H](C)CC1)c1cccc(F)c1` [Example 16.64, 3-{6-(3-chlorophenyl)-8-{[(1S)-1-(3-fluorophenyl)propyl]amino}-7-[(trans-4-methylcyclohexyl)methyl]-7H-purin-2-yl}-1,2,4-oxadiazol-5(4H)-one] as the compound, how does the IC50 read?
A: 3.16 nM
